The subject of test [1] is HepG2. Description: Tested in vitro for hepatoprotective effect of 10 ug/ml of compound on cell growth and lesions in Hep G2 cells treated with aflatoxin B1 (10 e -5 M). In kind it is functional, Homo sapiens.
Test [2] relates to HepG2. Description: Tested in vitro for hepatoprotective effect of 20 ug/ml of compound on cell growth and lesions in Hep G2 cells treated with aflatoxin B1 (10 e -5 M). In kind it is functional, Homo sapiens.

In test [1], `CC(=O)O[C@H]1CC[C@@]2(C)C(CC[C@]3(C)C2CC=C2[C@@H]4CC(C)(C)C[C@@H](O)[C@]4(C)CC[C@]23C)[C@@]1(C)CO` (stereo partly drawn) gave a Protection of 0%.

In turn, `CC1(C)C[C@@H](O)[C@]2(C)CC[C@]3(C)C(=CCC4[C@@]5(C)CC[C@H](O)C(C)(C)C5CC[C@]43C)[C@@H]2C1` (stereo partly drawn) displayed a Protection in test [1] of 19%. `CC1(C)C[C@@H](O)[C@]2(C)CC[C@]3(C)C(=CCC4[C@@]5(C)CC[C@H](O)[C@](C)(C(=O)O)C5CC[C@]43C)[C@@H]2C1` (stereo partly drawn) showed a Protection in test [1] of 44%.

The compound `CC1(C)C[C@@H](O)[C@]2(C)CC[C@]3(C)C(=CCC4[C@@]5(C)CCC[C@](C)(CO)C5CC[C@]43C)[C@@H]2C1` (stereo partly drawn) displayed a Protection in test [1] of 0%. Consider `CC1(C)[C@@H](O[C@H]2O[C@H](C(=O)O)[C@@H](O)[C@H](O)[C@H]2O[C@@H]2O[C@H](C(=O)O)[C@@H](O)[C@H](O)[C@H]2O)CC[C@]2(C)[C@H]3C(=O)C=C4[C@@H]5C[C@@](C)(C(=O)O)CC[C@]5(C)CC[C@@]4(C)[C@]3(C)CC[C@@H]12` [GLYCYRRHIZIN], for which, in test [2], the Protection was 15%.

`CO[C@H]1CC[C@@]2(C)C(CC[C@]3(C)C2CC=C2[C@@H]4CC(C)(C)C[C@@H](O)[C@]4(C)CC[C@]23C)[C@@]1(C)CO` (stereo partly drawn) returned a Protection in test [1] of 2%. With `COC[C@]1(C)C2CC[C@]3(C)C(CC=C4[C@@H]5CC(C)(C)C[C@@H](O)[C@]5(C)CC[C@]43C)[C@@]2(C)CC[C@@H]1O` (stereo partly drawn), the Protection in test [1] worked out at 48%. The same measure, in the same setting: under `CC1(C)CC[C@]2(C)CC[C@]3(C)C(=CCC4[C@@]5(C)CC[C@H](O)[C@](C)(CO)C5CC[C@]43C)[C@@H]2C1` (stereo partly drawn) stands 33%; under `CC1(C)C[C@@H](O)[C@]2(C)CC[C@]3(C)C(=CCC4[C@@]5(C)CC[C@H](O)[C@](C)(CO)C5CC[C@]43C)[C@@H]2C1` (stereo partly drawn), 14%; under `CC1(C)C[C@@H](O)[C@]2(C)CC[C@]3(C)C(=CCC4[C@@]5(C)CC[C@H](O)[C@](C)(C=O)C5CC[C@]43C)[C@@H]2C1` (stereo partly drawn), 32%.

In turn, `CC(=O)OC[C@]1(C)C2CC[C@]3(C)C(CC=C4[C@@H]5CC(C)(C)C[C@@H](O)[C@]5(C)CC[C@]43C)[C@@]2(C)CC[C@@H]1O` (stereo partly drawn) showed a Protection in test [1] of 45%. Same read-out and setting: under `CO[C@@H]1CC(C)(C)C[C@H]2C3=CCC4[C@@]5(C)CC[C@H](O)[C@](C)(CO)C5CC[C@@]4(C)[C@]3(C)CC[C@@]12C` (stereo partly drawn) stands 9%; under `CC(=O)O[C@@H]1CC(C)(C)C[C@H]2C3=CCC4[C@@]5(C)CC[C@H](O)[C@](C)(CO)C5CC[C@@]4(C)[C@]3(C)CC[C@@]12C` (stereo partly drawn), 11%.
